Laboratory results: patent US20150164901A1, “COMPOUNDS, COMPOSITIONS AND METHODS FOR TREATING OR PREVENTING NEURODEGENERATIVE DISORDERS” (President and Fellows of Harvard College, priority 2012, published 2015)

What was measured:
[1] = test system: proliferation in the culture; assay: Proliferation in motor neuron cultures; type: cell-based
Description: (§1) As shown herein, MLN increases SMN in human MNs, both in measures of average SMN and # of high SMN expressors. […] The effect on proliferation can be dissociated, for example, by using AraC in protocols for differentiation of cells into motor neurons.

[2] = test system: SMN; assay: SMN levels in wild type and patient iPS-derived motor neurons (FIG. 16); type: cell-based, human; conditions: motor neurons BJ RIPS (WT), A19 (C9 ORF), 27B (SOD1), 1-51N (SMA type II)
[3] = test system: Brn2+ neurons; assay: Survival of Brn2+ neurons (FIG. 13); type: cell-based; conditions: compared to DMSO control
[4] = test system: SMN-deficient motor neurons; assay: Survival of SMA-like mouse motor neurons derived from ES cells of A2 mice (FIG. 9B); type: cell-based; conditions: A2 mouse ES-derived motor neurons (no mSMN, two copies of hSMN2), treated four days
Protocol: (§2) FIG. 9A are images of immunostains of motor neurons derived from the ES-cells of A2 mice that lack a functional copy of mSMN but are supplemented with two copies of hSMN2 and thus are deficient but not completely lacking SMN protein were treated with MLN4924 for four days, SMN is shown in red and the hb9 promoter driven-GFP is shown in green. […] The error bars indicate ±S.E.M.

[5] = test system: SMN protein; assay: SMN-specific antibody staining of SMA patient and parent fibroblasts (FIG. 2C); type: cell-based; conditions: human fibroblasts derived from SMA patients and their parents
Description: FIG. 2A is a Western blot analysis showing the levels of SMN in cells expressing wild-type SMN and the dominant negative form of Cullin1 protein. […] FIGS. 2D and 2E are dose response curves of nuclear (FIG. 2D) and cytoplasmic (FIG. 2E) SMN levels in SMA patient and parent fibroblasts treated with MLN4924 at the indicated time points. The error bars in FIGS. 2D and 2B indicate ±S.E.M. SMN levels are normalized to DMSO control for each cell line at each time point.

[6] = test system: human motor neurons derived from ALS patient iPS cells; assay: Survival of human motor neurons derived from wild-type and ALS patient ES or iPS cells (FIG. 11); type: cell-based; conditions: wild-type (HUES3, 18a) and ALS patient (47a) lines on glia, treated 14 days after 7 days in culture
Description: FIG. 11A are immune stains of motor neurons derived from human wild-type (HUES3, 18a) and ALS patient (47a) ES or iPS cells. […] Representative images are shown for the Hues3 line which expresses GFP under the hb9 promoter shown is green, human nuclear antigen (hNA) shown in pink, and the nuclear marker Hoechst is shown in blue. […] Error bars indicate ±S.E.M.

[7] = test system: human motor neurons; assay: Motor neuron survival in human motor neurons (summary of data); type: cell-based
Description: as §1

[8] = test system: hb9_RFP motor neurons; assay: SMN knockdown (shRNA lentivirus) induced motor neuron death (FIG. 8A-8B); type: cell-based; conditions: SMN knockdown using shRNA lentivirus in hb9_RFP motor neurons
Description: (§3) MLN4924 is able to reverse the effects of SMN knockdown on motor neuron death. Representative images are shown.

[9] = test system: SMN; assay: Immunocytochemical analysis of SMN in motor neurons derived from mouse embryonic stem cells (FIG. 6D-6G); type: cell-based
Description: FIGS. 6B and 6C are bar graphs quantifying the results in FIG. 6A. […] SMN is shown in red and GFP driven by the motor neuron specific promoter hb9 is shown in green. […] High SMN expressor is defined as those motor neurons that harbor SMN levels greater than the top 10th percentile as defined in the DMSO control. Error bars indicate ±S.E.M.

[10] = test system: SMN transcript; assay: Quantitative RT-PCR of SMN transcript in motor neuron cultures (FIG. 6C); type: cell-based; conditions: compared to control
[11] = test system: SMN-deficient human motor neurons; assay: Survival of human motor neurons derived from SMA patient iPS cells (FIG. 10C, 10E); type: cell-based; conditions: SMA Type II (1-51) and SMA Type I iPS-derived motor neurons on glia with Ara C, 7 days
Description: (§4) Representative images are shown for Type II motor neurons. SMN is shown in red, the motor neuron marker islet 1 is shown in green, and the nuclear marker Hoechst is shown in blue. […] Error bars indicate ±S.E.M.

[12] = test system: SMN; assay: SMN in human motor neurons (summary of data); type: cell-based; conditions: human MNs
Description: as §1

[13] = test system: Gem counts; assay: Gem counts in wild type and ALS patient motor neurons (FIG. 18); type: cell-based, human; conditions: motor neurons 18A (WT), A19 (C9 ORF), 31D (TDP43), 27B (SOD1)
[14] = test system: SMN; assay: SMN immunostaining in SMA-like mouse motor neurons (FIG. 9C-9D); type: cell-based; conditions: A2 mouse ES-derived motor neurons, treated four days
Protocol: as §2

[15] = test system: motor neurons derived from ES cells; assay: Survival of ES cell-derived hb9-GFP motor neurons, time-course imaging (FIG. 7); type: cell-based, mouse
Protocol: FIG. 7A is a line graph showing the results of a time-course analysis of motor neurons derived from ES cells expressing GFP under the motor neuron specific hb9 promoter performed with imaging every 6 hours for a 7 day period. […] The error bars indicate ±S.E.M.

[16] = test system: SMN; assay: SMN immunostaining in human motor neurons derived from SMA patient iPS cells (FIG. 10B, 10D, 10F); type: cell-based; conditions: SMA Type II (1-51) and SMA Type I iPS-derived motor neurons on glia with Ara C, 7 days
Description: as §4

[17] = test system: motor neurons; assay: Survival of wild type and ALS patient motor neurons (FIG. 17); type: cell-based, human; conditions: BJ RIPS (WT), 18A (WT), 27B (SOD1), 31D (TDP43), A19 (C9ORF)
[18] = test system: SMN; assay: Histogram analysis of SMN expression in motor neurons under SMN RNAi (FIG. 8C); type: cell-based
Description: as §3

[19] = test system: SMN; assay: Western blot of SMN in lysates of motor neuron cultures (FIG. 6A-6B); type: cell-based; conditions: treated for 3 days, DMSO as control
[20] = test system: human motor neurons; assay: SMN expression distribution in human motor neurons treated with Trichostatin A (FIG. 14); type: cell-based; conditions: compared to a control

NS(=O)(=O)OC[C@@H]1C[C@@H](n2ccc3c(N[C@H]4CCc5ccccc54)ncnc32)C[C@@H]1O [MLN4924, ((1S,2S,4R)-4-(4-(((S)-2,3-dihydro-1H-inden-1-yl)amino)-7H-pyrrolo[2,3-d]pyrimidin-7-yl)-2-hydroxycyclopentyl)methyl sulfamate]
proliferation [1]: inhibits proliferation | SMN levels [2]: increases SMN levels | survival of Brn2+ neurons [3]: increases survival | number of surviving motor neurons [4]: significantly increases | SMN protein (SMN-specific antibody staining) [5]: stabilization of SMN protein | number of surviving motor neurons [6]: significantly increases | survival of motor neurons derived from ALS patients and their parents [7]: promotes survival | survival of motor neurons derived from SMA patients and their parents [7]: promotes survival | motor neuron survival ([7]; human motor neurons): promote motor neuron survival | MN survival, preliminary results ([7]; preliminary, believed to depend on the amount of proliferation in the culture): variable | effect of SMN RNAi on inducing motor neuron death [8]: significantly inhibits | number of high SMN expressing motor neurons ([9]; high SMN expressor = SMN levels greater than the top 10th percentile of DMSO control): dose-dependent effect | amount of low SMN expressors (histogram analysis) ([9]; mouse ES-derived motor neurons): without affecting | number of motor neurons with higher levels of SMN expression (histogram analysis) ([9]; mouse ES-derived motor neurons): increases | average intensity of SMN ([9]; mouse ES-derived motor neurons, treated at plating, fixed four days later, increasing levels of MLN4924): significantly increases in a dose-dependent manner | SMN transcript levels (quantitative RT-PCR) [10]: not significantly affected | number of surviving motor neurons [11]: significantly increases | # of high SMN expressors [12]: increases | average SMN [12]: increases | Gem counts [13]: increases Gem counts | SMN levels [14]: significantly increases | number of high SMN expressing motor neurons [14]: significantly increases | motor neuron survival (time-course analysis) ([15]; imaging every 6 hours for a 7 day period): significantly increases | motor neuron survival (dose response) ([15]; mouse-ES derived motor neurons): dose-dependent significant increase | SMN levels [16]: significantly increases | number of high SMN expressing motor neurons [16]: significantly increases | survival of motor neurons [17]: increases the survival | number of high SMN expressing motor neurons [18]: increases | SMN levels (Western blot) [19]: significantly increased

CC(/C=C/C(=O)NO)=C\[C@@H](C)C(=O)c1ccc(N(C)C)cc1 [Trichostatin A]
number of low SMN expressing motor neurons [20]: selectively reduces
